Assay results from patent US4339442A, “Gynosaponins, their use and a process for preparing the same” (priority 1980, dated 1982).

Experiments:
Assay type in all cases: cell-based, male wister rats
fat cells [1] = test: Decomposition of the fat in the fat cell by ACTH; details: ACTH 1 μg/ml + saponin 20 μg/ml, 37° C., two hours; for inhibition at 20 µg/mL: Rattus norvegicus, 2 h, read-out: Rate of inhibition
Procedure: (§1) Fat tissues were separated from the epididymides of male wister rats weighing 150 to 180 g each, and fat cells were obtained therefrom in accordance with the Rodbell's method [M. Rodbell, J. Biol. Chem., 239, 375 (1964)]. A small section was prepared from 4 g of the fat tissue, and placed in 10 ml. of Krebs-Ringer bicarbonate buffer containing 0.4 g of albumin, 10 mg of collagenase and 5 mg of glucose, and having a pH value of 7.4. It was heated at 37° C. for 50 minutes, and subjected to centrifugal separation at 300 rpm, whereby a floating fat cell layer was separated. Added into the fat cell were 10 ml. of the aforesaid buffer (pH 7.4), and the solution was carefully stirred to wash the fat cell, followed by centrifugal separation at 300 rpm for 30 seconds. This procedure was repeated twice, whereby the fat cells were washed perfectly, and these fat cells were used for the tests.
The fat cells obtained by treating with collagenase were suspended in Krebs-Ringer bicarbonate buffer (KRB) having a pH value of 7.4. Placed into a test tube were 0.3 ml. of the solution thus obtained (containing 100 mg of fat cells), 0.1 ml. of ACTH solution containing 1 μg of ACTH, 0.1 ml. of each saponin solution containing 500 μg of saponin, and 0.3 ml. of a 5% alubumin solution in KRB, and having a pH value adjusted to 7.4. They were heated at 37° C. for two hours, and the amount of the resulting free fatty acid was determined in accordance with the Dole's method [V. P. Dole, J. Biol. Chem., 35, 150 (1958)].
Namely, 3 ml. of Dole's extract were separated into the reaction system, and 1 ml. of a thymol blue solution was added thereinto. Nitrogen was blown into the resulting solution, and the solution was titrated with a 0.008 N aqueous solution of sodium hydroxide, while it was being stirred. The amount of the resulting free fatty acid was determined in accordance with a calibration curve.
The rate of inhibition against fat decomposition was obtained in accordance with the following equation: [formula] wherein A stands for the amount of the free fatty acid formed by addition of ACTH along in the amount of 1 μg/ml.; and B stands for the amount of the free fatty acid formed by addition of ACTH and saponin in the amount of 1 μg/ml. and 20 μg/ml., respectively.

fat cells [2] = test: Synthesis of fat from glucose in fat cells; details: 20 μg/ml; for Power for synthesis of neutral fat from glucose: 37° C., half an hour; for activation at 20 µg/mL: Rattus norvegicus, 0.5 h, read-out: Rate of promotion; for activation at 20 µg/mL / Rate of promotion: none = 100
Procedure: as §1
^14 C-glucose having its carbon atoms marked with radioactivity was reacted upon fat cells, and a Geiger count was read to determine the amount of the glucose participating in the fat synthesis and incorporated into the fat cells as a neutral fat, whereby gynosaponins were tested for their effects on the power of the glucose for fat synthesis.
More specifically, the fat cells obtained by treating with collagenase were suspended in KRB, and 0.35 ml. of the resulting solution containing 100 mg of fat cells was placed into a test tube with 0.1 ml. of each saponin solution containing 20 μg of saponin, 0.5 ml. of a 5% albumin solution in KRB, containing 10 mM glucose and having a pH value of 7.4, and 0.05 ml. of a ^14 C-glucose solution which was a 0.5 μCi KRP solution having a pH value of 7.4 and containing 10 mM glucose. They were heated at 37° C. for half an hour, and after 5 ml. of Dole's extract were added and the whole was shaked for five minutes, 3 ml. of heptane and 2 ml. of water were added, and the whole was shaked for five minutes. 3 ml. of a heptane layer were separated, and after an alkaline ethanol solution (0.5 N sodium hydroxide solution, 50 % ethanol solution) was added in the amount of 3 ml., the whole was shaked for five minutes. Then, 1 ml. of an ethanol layer was separated, and 10 ml. of a toluene scintillation solution were added thereinto, followed by determination according to the method of Skipski et al. [Biochem. Biophys. Acta, 106, 386 (1965)].

fat cells [3] = test: Decomposition by adrenalin of the fat in the fat cells; details: adrenalin 1 μg/ml + saponin 20 μg/ml, 37° C., two hours; for inhibition at 20 µg/mL: Rattus norvegicus, 2 h, read-out: Rate of inhibition
Procedure: A small section was prepared from 4 g of the fat tissue, and placed in 10 ml. of Krebs-Ringer bicarbonate buffer containing 0.4 g of albumin, 10 mg of collagenase and 5 mg of glucose, and having a pH value of 7.4. […] Added into the fat cell were 10 ml. of the aforesaid buffer (pH 7.4), and the solution was carefully stirred to wash the fat cell, followed by centrifugal separation at 300 rpm for 30 seconds. This procedure was repeated twice, whereby the fat cells were washed perfectly, and these fat cells were used for the tests.
The fat cells obtained by treating with collagenase were suspended in Krebs-Ringer phosphate buffer (KRP) having a pH value of 7.4. Placed into a test tube were 0.3 ml. of the solution thus obtained, and containing 100 mg of fat cells, 0.1 ml. of an adrenalin solution containing 1 μg of adrenalin, 0.1 ml. of a saponin solution containing 20 μg of saponin, and 0.5 ml. of a 5% albumin solution in KRP, and having a pH value adjusted to 7.4. […] More specifically, 3 ml. of Dole's extract were placed in the reaction system, and after they were shaked for five minutes, 3 ml. of heptane were dispensed, and 1 ml. of a thymol blue solution was added thereinto. The resulting solution was titrated with a 0.008 N aqueous solution of sodium hydroxide, while it was being stirred with nitrogen, and the amount of the resulting free fatty acid was determined in accordance with a calibration curve.
The rate of inhibition was obtained in accordance with the equation shown at (1) above.

CC(C)=CCC[C@](C)(O[C@@H]1O[C@H](CO[C@@H]2OC[C@@H](O)[C@H](O)[C@H]2O)[C@@H](O)[C@H](O)[C@H]1O)[C@H]1CC[C@]2(C)[C@@H]1[C@H](O)C[C@@H]1[C@@]3(C)CC[C@H](O[C@@H]4O[C@H](CO)[C@@H](O)[C@H](O)[C@H]4O[C@@H]4OC[C@@H](O)[C@H](O)[C@H]4O)C(C)(C)[C@@H]3CC[C@]12C [gynosaponin Q, 20S-Protopanaxadiol-3-O-[β-D-xylopyranosyl (1→2)-β-D-glucopyranoside]-20-O-[β-D-xylopyranosyl (1→6)-β-D-glucopyranoside]]
Free fatty acid formed by decomposition of fat (fat cells [1]): 5.8 μ Eq/g
inhibition at 20 µg/mL (fat cells [1]): 31%
Power for synthesis of neutral fat from glucose (fat cells [2]): 11,620 cpm/g
activation at 20 µg/mL (fat cells [2]): 54%
inhibition at 20 µg/mL (fat cells [3]): 4%
Free fatty acid formed by decomposition of fat (fat cells [3]): 13.5 μ Eq/g

CC(C)=CCC[C@](C)(O[C@@H]1O[C@H](CO[C@@H]2O[C@@H](C)[C@H](O)[C@@H](O)[C@H]2O)[C@@H](O)[C@H](O)[C@H]1O)[C@H]1CC[C@]2(C)[C@@H]1[C@H](O)C[C@@H]1[C@@]3(C)CC[C@H](O[C@@H]4O[C@H](CO)[C@@H](O)[C@H](O)[C@H]4O[C@@H]4OC[C@@H](O)[C@H](O)[C@H]4O)C(C)(C)[C@@H]3CC[C@]12C [gynosaponin R, 20S-Protopanaxadiol-3-O-[β-D-xylopyranosyl (1→2)-β-D-glucopyranoside]-20-O-[α-L-rhamnopyranosyl (1→6)-β-D-glucopyranoside]]
Free fatty acid formed by decomposition of fat (fat cells [1]): 6.2 μ Eq/g
inhibition at 20 µg/mL (fat cells [1]): 26%
Power for synthesis of neutral fat from glucose (fat cells [2]): 12,600 cpm/g
activation at 20 µg/mL (fat cells [2]): 59%
inhibition at 20 µg/mL (fat cells [3]): 1%
Free fatty acid formed by decomposition of fat (fat cells [3]): 14.0 μ Eq/g

CC(C)=CCC[C@](C)(O[C@@H]1O[C@H](CO[C@@H]2O[C@@H](C)[C@H](O)[C@@H](O)[C@H]2O)[C@@H](O)[C@H](O)[C@H]1O)[C@H]1CC[C@]2(C)[C@@H]1[C@H](O)C[C@@H]1[C@@]3(C)CC[C@H](O)C(C)(C)[C@@H]3CC[C@]12C [gynosaponin N, 20S-Protopanaxadiol-20-O-[α-L-rhamnopyranosyl (1→6)-β-D-glucopyranoside]]
Free fatty acid formed by decomposition of fat (fat cells [1]): 5.2 μ Eq/g
inhibition at 20 µg/mL (fat cells [1]): 38%
Power for synthesis of neutral fat from glucose (fat cells [2]): 9,870 cpm/g
activation at 20 µg/mL (fat cells [2]): 46%
inhibition at 20 µg/mL (fat cells [3]): 6%
Free fatty acid formed by decomposition of fat (fat cells [3]): 13.3 μ Eq/g

CC(C)=CCC[C@](C)(O[C@@H]1O[C@H](CO[C@@H]2OC[C@@H](O)[C@H](O)[C@H]2O)[C@@H](O)[C@H](O)[C@H]1O)[C@H]1CC[C@]2(C)[C@@H]1[C@H](O)C[C@@H]1[C@@]3(C)CC[C@H](O[C@@H]4O[C@H](CO)[C@@H](O)[C@H](O)[C@H]4O)C(C)(C)[C@@H]3CC[C@]12C [gynosaponin I, 20S-Protopanaxadiol-3-O-β-D-glucopyranoside-20-O-[β-D-xylopyranosyl (1→6)-β-D-glucopyranoside]]
Free fatty acid formed by decomposition of fat (fat cells [1]): 6.6 μ Eq/g
inhibition at 20 µg/mL (fat cells [1]): 21%
Power for synthesis of neutral fat from glucose (fat cells [2]): 10,564 cpm/g
activation at 20 µg/mL (fat cells [2]): 49%
inhibition at 20 µg/mL (fat cells [3]): 10%
Free fatty acid formed by decomposition of fat (fat cells [3]): 12.7 μ Eq/g

20S,26-Hydroxyprotopanaxadiol-3-O-{[β-D-glucopyranosyl (1→2)-α-L-rhamnopyranosyl (1→6)]-β-D-glucopyranoside}-20-O-[α-L-rhamnopyranosyl (1→6)-β-D-glucopyranoside] [gynosaponin O]
Free fatty acid formed by decomposition of fat (fat cells [1]): 5.6 μ Eq/g
Rate of inhibition (fat cells [1]): 33%
Power for synthesis of neutral fat from glucose (fat cells [2]): 8,263 cpm/g
Rate of promotion (fat cells [2]): 38%
Free fatty acid formed by decomposition of fat (fat cells [3]): 13.9 μ Eq/g
Rate of inhibition (fat cells [3]): 1%

20S-Protopanaxadiol-3-O-{[β-D-glucopyranosyl (1→2)-α-L-rhamnopyranosyl (1→6)]-β-D-glucopyranoside}-20-O-[α-L-rhamnopyranosyl (1→6)-β-D-glucopyranoside] [gynosaponin B]
Free fatty acid formed by decomposition of fat (fat cells [1]): 6.9 μ Eq/g
Rate of inhibition (fat cells [1]): 18%
Power for synthesis of neutral fat from glucose (fat cells [2]): 12,308 cpm/g
Rate of promotion (fat cells [2]): 57%
Free fatty acid formed by decomposition of fat (fat cells [3]): 9.1 μ Eq/g
Rate of inhibition (fat cells [3]): 35%

CC(=CCC[C@](C)(O[C@@H]1O[C@H](CO)[C@@H](O)[C@H](O)[C@H]1O)[C@H]1CC[C@]2(C)[C@@H]1[C@H](O)C[C@@H]1[C@@]3(C)CC[C@H](O)C(C)(C)[C@@H]3CC[C@]12C)CO [progynosapogenin O1, 20S,26-Hydroxyprotopanaxadiol-20-O-β-D-glucopyranoside]
Free fatty acid formed by decomposition of fat (fat cells [1]): 5.9 μ Eq/g
inhibition at 20 µg/mL (fat cells [1]): 30%
Power for synthesis of neutral fat from glucose (fat cells [2]): 11,200 cpm/g
activation at 20 µg/mL (fat cells [2]): 52%
inhibition at 20 µg/mL (fat cells [3]): 11%
Free fatty acid formed by decomposition of fat (fat cells [3]): 12.6 μ Eq/g

20S,26-Hydroxyprotopanaxadiol-3-O-{[β-D-glucopyranosyl (1→2)-α-L-rhamnopyranosyl (1→6)]-β-D-glucopyranoside}-20-O-[β-D-glucopyranosyl (1→6)-β-D-glucopyranoside] [gynosaponin T]
Free fatty acid formed by decomposition of fat (fat cells [1]): 6.3 μ Eq/g
Rate of inhibition (fat cells [1]): 25%
Power for synthesis of neutral fat from glucose (fat cells [2]): 11,150 cpm/g
Rate of promotion (fat cells [2]): 52%
Free fatty acid formed by decomposition of fat (fat cells [3]): 13.1 μ Eq/g
Rate of inhibition (fat cells [3]): 7%

CC(C)=CCC[C@](C)(O[C@@H]1O[C@H](CO[C@@H]2O[C@H](CO)[C@@H](O)[C@H](O)[C@H]2O)[C@@H](O)[C@H](O)[C@H]1O)[C@H]1CC[C@]2(C)[C@@H]1[C@H](O)C[C@@H]1[C@@]3(C)CC[C@H](O[C@@H]4O[C@H](CO[C@@H]5O[C@@H](C)[C@H](O)[C@@H](O)[C@H]5O)[C@@H](O)[C@H](O)[C@H]4O)C(C)(C)[C@@H]3CC[C@]12C [progynosapogenin A2, 20S-Protopanaxadiol-3-O-[α-L-rhamnopyranosyl (1→6)-β-D-glucopyranoside]-20-O-[β-D-glucopyranosyl (1→6)-β-D-glucopyranoside]]
Free fatty acid formed by decomposition of fat (fat cells [1]): 6.2 μ Eq/g
inhibition at 20 µg/mL (fat cells [1]): 26%
Power for synthesis of neutral fat from glucose (fat cells [2]): 12,650 cpm/g
activation at 20 µg/mL (fat cells [2]): 59%
inhibition at 20 µg/mL (fat cells [3]): 8%
Free fatty acid formed by decomposition of fat (fat cells [3]): 13.0 μ Eq/g
